Common to all, as to settings: Compound Concentration 10.0 uM, Hit No
Test [1] concerns the target Methyl-CpG-binding domain protein 4 (Homo sapiens) (UniProt O95243).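 Further: MBD4 activity read as fluorescence at 594 nm from cleavage and release of a quenched duplex DNA oligonucleotide, with APE1 coupled to incise the strand and raise turnover.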
Description: Inhibition of MBD4 by quantifying inhibition of MBD4-mediated cleavage and dissociation of quenched duplex DNA oligonucleotides, measured as fluorescence at 594 nm. To generate a functional strand incision and increase turn-over this assay is coupled to APE1.
In test [2] the target is DNA-3-methyladenine glycosylase (Homo sapiens) (UniProt P29372).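 Further: enzyme assay where MPG cuts a quenched duplex DNA oligonucleotide probe, paired with APE1 for strand incision and turnover, read as fluorescence at 594 nm.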
DNA-3-methyladenine glycosylase (Homo sapiens), sequence (P29372 whole entry): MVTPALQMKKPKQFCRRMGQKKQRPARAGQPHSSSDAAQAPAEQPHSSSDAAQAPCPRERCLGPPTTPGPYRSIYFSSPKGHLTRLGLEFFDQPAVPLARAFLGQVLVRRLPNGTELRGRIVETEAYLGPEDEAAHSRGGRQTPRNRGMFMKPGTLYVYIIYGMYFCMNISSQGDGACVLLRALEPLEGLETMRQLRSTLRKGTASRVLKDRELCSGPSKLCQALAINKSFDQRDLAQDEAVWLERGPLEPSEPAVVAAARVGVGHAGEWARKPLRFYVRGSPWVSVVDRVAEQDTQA
Description: Inhibition of MPG by quantifying inhibition of MPG-mediated cleavage and dissociation of quenched duplex DNA oligonucleotides, measured as fluorescence at 594 nm. To generate a functional strand incision and increase turn-over this assay is coupled to APE1.
Test [3] deals with Endonuclease 8-like 1 (Homo sapiens) (UniProt Q96FI4).
Endonuclease 8-like 1 (Homo sapiens), sequence (Q96FI4 whole entry): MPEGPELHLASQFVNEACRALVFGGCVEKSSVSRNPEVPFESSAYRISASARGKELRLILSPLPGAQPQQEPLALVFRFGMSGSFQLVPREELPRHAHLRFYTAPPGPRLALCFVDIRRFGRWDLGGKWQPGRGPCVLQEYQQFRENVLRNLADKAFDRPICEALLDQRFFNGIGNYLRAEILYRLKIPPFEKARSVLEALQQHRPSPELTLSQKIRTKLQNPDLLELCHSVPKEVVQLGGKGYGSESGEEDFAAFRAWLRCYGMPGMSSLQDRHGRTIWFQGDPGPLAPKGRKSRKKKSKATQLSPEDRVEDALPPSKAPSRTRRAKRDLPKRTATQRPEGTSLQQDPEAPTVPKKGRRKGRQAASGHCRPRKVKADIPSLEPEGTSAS
Description: Inhibition of NEIL1 by quantifying inhibition of NEIL1-mediated cleavage and dissociation of quenched duplex DNA oligonucleotides, measured as fluorescence at 594 nm.
Test [4] concerns the target T1, Endonuclease 8-like 2 (Homo sapiens) (UniProt Q969S2).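 Further: fluorescence at 594 nm reports NEIL2 cutting and release of a quenched double-stranded DNA oligo substrate, reduced signal read as inhibition.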
T1 sequence (whole entry): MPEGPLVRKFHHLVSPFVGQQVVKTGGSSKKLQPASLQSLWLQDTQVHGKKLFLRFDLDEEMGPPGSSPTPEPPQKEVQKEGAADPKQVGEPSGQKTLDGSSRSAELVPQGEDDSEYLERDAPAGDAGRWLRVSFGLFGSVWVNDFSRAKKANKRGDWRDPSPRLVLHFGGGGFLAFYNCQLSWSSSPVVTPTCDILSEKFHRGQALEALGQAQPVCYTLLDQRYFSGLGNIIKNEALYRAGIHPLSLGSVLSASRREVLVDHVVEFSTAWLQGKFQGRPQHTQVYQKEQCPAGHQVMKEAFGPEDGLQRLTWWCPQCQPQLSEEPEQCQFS
Description: Inhibition of NEIL2 by quantifying inhibition of NEIL2-mediated cleavage and dissociation of quenched duplex DNA oligonucleotides, measured as fluorescence at 594 nm.

Test [5] addresses T2, Endonuclease III-like protein 1 (Homo sapiens) (UniProt P78549).
T2 sequence (whole entry): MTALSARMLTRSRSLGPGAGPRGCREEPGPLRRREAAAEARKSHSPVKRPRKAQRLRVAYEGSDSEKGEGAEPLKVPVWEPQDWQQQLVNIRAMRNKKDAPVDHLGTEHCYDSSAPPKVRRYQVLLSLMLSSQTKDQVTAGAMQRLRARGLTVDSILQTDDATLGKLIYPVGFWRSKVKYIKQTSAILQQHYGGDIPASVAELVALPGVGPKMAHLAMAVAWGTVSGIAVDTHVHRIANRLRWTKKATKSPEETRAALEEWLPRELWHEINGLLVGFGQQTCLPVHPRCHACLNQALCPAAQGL
Description: Inhibition of NTHL1 by quantifying inhibition of NTHL1-mediated cleavage and dissociation of quenched duplex DNA oligonucleotides, measured as fluorescence at 594 nm.

Test [6] concerns the target N-glycosylase/DNA lyase (Homo sapiens) (UniProt O15527).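 Further: OGG1 cleavage of a quenched duplex DNA oligonucleotide, coupled to APE1 for strand incision, read as fluorescence at 594 nm.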
Description: Inhibition of OGG1 by quantifying inhibition of OGG1-mediated cleavage and dissociation of quenched duplex DNA oligonucleotides, measured as fluorescence at 594 nm. To generate a functional strand incision and increase turn-over this assay is coupled to APE1.
Test [7] deals with T3, Single-strand selective monofunctional uracil DNA glycosylase (Homo sapiens) (UniProt Q53HV7).
T3 sequence (whole entry): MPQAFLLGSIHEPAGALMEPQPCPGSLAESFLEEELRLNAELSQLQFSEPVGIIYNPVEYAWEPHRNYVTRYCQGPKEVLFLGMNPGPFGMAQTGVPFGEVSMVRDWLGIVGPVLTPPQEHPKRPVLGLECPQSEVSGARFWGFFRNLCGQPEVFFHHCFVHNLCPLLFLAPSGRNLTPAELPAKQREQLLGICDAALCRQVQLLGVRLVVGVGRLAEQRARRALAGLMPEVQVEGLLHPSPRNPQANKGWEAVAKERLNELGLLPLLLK
Description: Inhibition of SMUG1 by quantifying inhibition of SMUG1-mediated cleavage and dissociation of quenched duplex DNA oligonucleotides, measured as fluorescence at 594 nm. To generate a functional strand incision and increase turn-over this assay is coupled to APE1.

Test [8] deals with G/T mismatch-specific thymine DNA glycosylase (Homo sapiens) (UniProt Q13569).
G/T mismatch-specific thymine DNA glycosylase (Homo sapiens), sequence (Q13569 whole entry): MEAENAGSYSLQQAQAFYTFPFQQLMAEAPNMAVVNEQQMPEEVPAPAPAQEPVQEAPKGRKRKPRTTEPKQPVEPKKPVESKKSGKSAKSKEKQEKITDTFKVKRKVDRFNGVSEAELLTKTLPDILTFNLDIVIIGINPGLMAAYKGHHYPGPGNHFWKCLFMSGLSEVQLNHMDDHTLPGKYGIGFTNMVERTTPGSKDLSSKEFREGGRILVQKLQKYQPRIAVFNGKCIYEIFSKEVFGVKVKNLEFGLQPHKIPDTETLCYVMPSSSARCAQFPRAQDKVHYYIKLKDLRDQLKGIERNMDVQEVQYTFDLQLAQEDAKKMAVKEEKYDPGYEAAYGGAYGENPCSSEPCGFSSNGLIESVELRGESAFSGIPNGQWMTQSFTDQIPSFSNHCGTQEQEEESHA
Description: Inhibition of TDG by quantifying inhibition of TDG-mediated cleavage and dissociation of quenched duplex DNA oligonucleotides, measured as fluorescence at 594 nm. To generate a functional strand incision and increase turn-over this assay is coupled to APE1.
In test [9] the target is Uracil-DNA glycosylase (Homo sapiens) (UniProt P13051).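 Further: UNG excision on a quenched double-stranded DNA oligo probe, with APE1 added for strand incision and turnover, read as fluorescence at 594 nm as strands separate.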
Uracil-DNA glycosylase (Homo sapiens), sequence (P13051 whole entry): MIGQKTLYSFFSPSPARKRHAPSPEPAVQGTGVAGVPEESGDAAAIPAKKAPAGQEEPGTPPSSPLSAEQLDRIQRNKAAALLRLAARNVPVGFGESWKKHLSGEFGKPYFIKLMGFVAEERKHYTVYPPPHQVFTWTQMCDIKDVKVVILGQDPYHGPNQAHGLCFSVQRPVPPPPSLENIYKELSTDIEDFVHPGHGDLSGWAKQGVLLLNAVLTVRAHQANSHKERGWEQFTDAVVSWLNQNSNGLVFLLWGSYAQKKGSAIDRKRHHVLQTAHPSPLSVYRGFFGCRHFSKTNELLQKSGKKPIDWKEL
Description: Inhibition of UNG by quantifying inhibition of UNG-mediated cleavage and dissociation of quenched duplex DNA oligonucleotides, measured as fluorescence at 594 nm. To generate a functional strand incision and increase turn-over this assay is coupled to APE1.

Methyl-CpG-binding domain protein 4 (Homo sapiens), sequence (O95243 whole entry, the tested form may be a part): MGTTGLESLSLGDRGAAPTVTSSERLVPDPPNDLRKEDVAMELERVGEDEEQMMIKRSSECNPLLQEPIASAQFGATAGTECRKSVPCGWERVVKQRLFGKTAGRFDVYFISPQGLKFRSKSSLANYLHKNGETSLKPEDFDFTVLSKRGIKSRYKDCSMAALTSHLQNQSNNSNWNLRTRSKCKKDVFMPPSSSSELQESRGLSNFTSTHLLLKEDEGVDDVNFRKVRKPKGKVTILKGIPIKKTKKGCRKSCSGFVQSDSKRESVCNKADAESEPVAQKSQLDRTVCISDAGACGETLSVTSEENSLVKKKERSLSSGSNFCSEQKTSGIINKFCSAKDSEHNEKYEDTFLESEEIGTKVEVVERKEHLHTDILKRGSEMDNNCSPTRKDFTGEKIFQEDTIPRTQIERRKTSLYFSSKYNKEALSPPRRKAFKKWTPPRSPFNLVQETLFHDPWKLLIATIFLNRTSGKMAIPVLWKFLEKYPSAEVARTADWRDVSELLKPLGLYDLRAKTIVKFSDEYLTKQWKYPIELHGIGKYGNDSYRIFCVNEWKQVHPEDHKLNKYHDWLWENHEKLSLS
N-glycosylase/DNA lyase (Homo sapiens), sequence (O15527 whole entry): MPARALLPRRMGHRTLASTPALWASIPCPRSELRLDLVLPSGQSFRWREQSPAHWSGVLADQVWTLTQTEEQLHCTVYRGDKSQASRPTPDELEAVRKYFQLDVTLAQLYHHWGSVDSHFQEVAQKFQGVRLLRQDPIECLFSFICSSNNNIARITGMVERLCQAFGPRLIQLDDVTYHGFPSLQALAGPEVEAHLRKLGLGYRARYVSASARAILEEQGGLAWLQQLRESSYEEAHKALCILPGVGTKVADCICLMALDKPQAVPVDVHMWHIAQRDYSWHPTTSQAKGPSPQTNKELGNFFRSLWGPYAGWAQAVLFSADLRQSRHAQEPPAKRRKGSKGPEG

The inhibition is the change of the read-out against control, counted positive when it falls. Turning to `COC(=O)C1=C(C)NC(C)=C(C(=O)OC(C)C)C1c1cccc2nonc12` (centres undefined), the inhibition is 3.95% in test [1]; -0.967% in [2]; 1.94% in [3]; -0.86% in [4]; 15.4% in test [5]; -6.65% in test [6]. Further, the inhibition in test [7] was 0.608%; in test [8], 5.72%; in test [9] it was -3.24%.

As for `CN1C[C@@H](NS(=O)(=O)N(C)C)C[C@@H]2c3cccc4c3c(cn4C)C[C@H]21`, the inhibition in test [1] is 12.1%; in [2], 11.2%; in test [3], 13.1%; in test [4] it was -0.605%; in test [5], -8.51%; in test [6], -5.21%. Besides, the figures for the inhibition in [7], in test [8] and in test [9] were 2.87%, 7.57% and -6.05%, respectively.

As for `CN(C)C(=O)N[C@H]1CC[C@H](CCN2CCN(c3cccc(Cl)c3Cl)CC2)CC1`, the inhibition in test [1] was -1.19%; in [2], -7.07%; in test [3] it was -4.8%; in test [4] it was 10.2%; in [5], 2.66%; in test [6] it was 1.62%. In addition, the inhibition in test [7] was 1.03%; in test [8], 14.4%; in test [9], -3.02%.

As to `CCOC(=O)C1=C[C@]2(CC)CCCN3CCc4c(n1c1ccccc41)[C@@H]32`, the inhibition in [1] is -4.24%; in [2] it was -4.56%; in test [3], 2.53%; in test [4], 6.02%; in test [5] it was 18.7%; in test [6], -8.62%. The inhibition in [7] was 1%; in test [8], -4.28%; in test [9] it was -5.08%.

Regarding `OC(CN1CCC(Cc2ccc(F)cc2)CC1)c1ccc(Cl)cc1` (centres undefined), the inhibition in [1] was -0.39%; in test [2], 4.63%; in [3] it was 0.602%; in test [4], -7.99%; in test [5] it was 8.82%; in test [6], -4.77%. For the same compound, the results for the inhibition in test [7], in test [8] and in [9] were -3.86%, -8.99% and -7.04%, respectively.

Consider `CC(C)(C)NCC(O)COc1cccc2[nH]c(=O)[nH]c12` (centres undefined), for which the inhibition is 12.3% in [1]; 4.34% in [2]; 3.06% in [3]; 10.5% in [4]; -6.87% in test [5]; -2.11% in [6]. Besides, the inhibition in test [7] was 12.3%; in [8] it was 5.99%; in test [9] it was -8.82%.

For `COc1ccc(-n2nc3c4ccccc4[nH]cc-3c2=O)cc1`, the inhibition in test [1] was 1.12%; in [2], -3.24%; in test [3], 0.00926%; in test [5], -6.86%; in [6] it was -8.16%; in test [7], -6.96%. Besides, the inhibition in test [8] is -5.16%; in [9], -4.77%.

As to `CCOc1ccc(S(=O)(=O)Nc2ccc(Cl)cc2C#Cc2cnc(C(=O)O)cc2OC)c2ncccc12`, the inhibition in test [1] is 60.3%; in test [2] it was 14.2%; in test [3], 7.43%; in [5] it was -3.26%; in test [6], 7.9%; in test [7], 5.88%. For the same compound, the inhibition in test [8] was 51.4%; in [9] it was 7.85%.

As for `NC(CCP(=O)(O)O)C(=O)O` (racemic), the inhibition in [1] is 6.95%; in test [2], -3.6%; in [3] it was 0.0927%; in test [4] it was -9.22%; in test [5], 2.66%; in test [6] it was -1.26%. The results for the inhibition in [7], in test [8] and in [9] were 10.5%, 24.4% and -6.54%, respectively.

In the case of `Cc1cc(C(C)(C)C)c(O)c(C)c1CC1=NCCN1`, the inhibition in test [1] is -7.05%; in test [2] it was 3.54%; in [3], 8.25%; in test [4], 19%; in test [5] it was 1.92%; in test [6] it was -1.82%. Also, the inhibition is -3.38% in test [7], 10.8% in test [8] and -7.32% in test [9].

With `CCOC(=O)c1cnn(-c2ccc(NC(=O)C(Cl)=C(Cl)Cl)cc2)c1C(F)(F)F`, the inhibition was 1.57% in [1]; 17.3% in [2]; -3.99% in [3]; 2.71% in test [4]; 8% in [5]; -2.43% in test [6]. Besides, the inhibition in test [7] amounted to 15%; in test [8], 5.37%; in test [9], 2.51%.

With `CCCCN(CC)c1nc(C)nc2c1c(C)cn2-c1c(C)cc(C)cc1C`, the inhibition in [1] was -9.26%; in test [2], 6%; in [3] it was -1.24%; in [4], 9%; in test [5], 19.5%; in [6], 2.6%. Moreover, the results for the inhibition in test [7], in test [8] and in test [9] were -0.0333%, 13.7% and -4.91%, respectively.

For the compound `COc1ccc(Cl)cc1[C@]1(F)C(=O)Nc2cc(C(F)(F)F)ccc21`, the inhibition in [1] is -4.08%; in test [2], -5.04%; in [3], 3.12%; in [4], 17%; in test [5] it was 6.35%; in test [6] it was 4.52%. The inhibition in test [7] was 8.52%; in [8] it was -9.73%; in test [9], -2.84%.

Take `O=C(N[C@H]1CN2CCC1CC2)c1ccc(Cl)cc1`: the inhibition is 12.6% in [1]; -7.18% in test [2]; 1.79% in [3]; 3.98% in test [4]; 15.4% in test [5]; 3.71% in test [7]. The results for the inhibition in test [8] and in [9] were 21.4% and -1.13%, respectively.

For the compound `Cc1c(C(=O)NN2CCCCC2)nn(-c2ccc(Cl)cc2Cl)c1-c1ccc(Cl)cc1`, the inhibition in [1] was 16.2%; in test [2], 15.3%; in test [3] it was -1.09%; in [4] it was 0.764%; in test [5], -0.275%; in [6] it was 9%. The inhibition is 11.7% in test [7], 19.2% in test [8] and 1.35% in test [9].

For `CCN(CC)CCCCC1CCN(CC(=O)N2c3ccccc3C(=O)Nc3cccnc32)CC1`, the inhibition in test [1] was -4.84%; in test [2] it was -8.23%; in test [3] it was -7.47%; in test [4] it was 12.7%; in test [5] it was 12.2%; in test [6], -2.09%. Also, the inhibition in test [7] turned out to be 1.37%; in test [8], 10.1%.

With `Cc1c(C(=O)NC2CCCCC2)sc2nc3ccc(N)cc3n12`, the inhibition in [1] is 7.24%; in test [2], -4.14%; in test [3] it was -4.65%; in test [4], 1.76%; in test [5], 7.79%; in test [6], -4.66%. Also, the inhibition came out at 8.2% in test [7] and 11.8% in [8].

For the compound `CC1(C)CC(CN2CCC(F)(CNC(=O)c3cc(Cl)cc(Cl)c3)CC2)CCO1` (centres undefined), the inhibition in test [1] is 12.4%; in [2], 9.94%; in test [3] it was 6.23%; in test [4], 6.78%; in test [5], -3.56%; in test [7] it was 8.24%. Moreover, the inhibition is 12.8% in test [8] and -1.24% in test [9].

As for `CN1CCC(=C2c3ccccc3CC(=O)c3sccc32)CC1`, the inhibition was -9.08% in [1]; -7.46% in test [2]; 8.25% in [3]; 2.26% in test [4]; -2.47% in [5]; -5.18% in test [6]. Also, the inhibition in [7] was -4.83%; in test [8], 2.08%.

Source of the values: ChEMBL document CHEMBL5665443, “Enzyme Inhibitor Single Concentration assay results for EUbOPEN Chemogenomics Library” (2024).
